Laboratory results taken from PubChem BioAssay AID540345 (The Scripps Research Institute Molecular Screening Center, 2011).
Calls of active or inactive are those of the source. How the calls were made is not given here.

What was measured:
Assay in all cases: off-target binding and CYP inhibition panel, profiling panel, selectivity assay for GPR7 antagonist project, biochemical, Ricerca HitProfilingScreen, CYP450, set 2 (AID 540345)
[1] = biological target: Cytochrome P450 1A2 (Homo sapiens) (UniProt P05177); conditions: Ricerca radioligand binding/CYP panel; CYP450 1A2; at 10 µM; active compounds read high
Chain of Cytochrome P450 1A2 (Homo sapiens) (P05177 whole entry, looked up): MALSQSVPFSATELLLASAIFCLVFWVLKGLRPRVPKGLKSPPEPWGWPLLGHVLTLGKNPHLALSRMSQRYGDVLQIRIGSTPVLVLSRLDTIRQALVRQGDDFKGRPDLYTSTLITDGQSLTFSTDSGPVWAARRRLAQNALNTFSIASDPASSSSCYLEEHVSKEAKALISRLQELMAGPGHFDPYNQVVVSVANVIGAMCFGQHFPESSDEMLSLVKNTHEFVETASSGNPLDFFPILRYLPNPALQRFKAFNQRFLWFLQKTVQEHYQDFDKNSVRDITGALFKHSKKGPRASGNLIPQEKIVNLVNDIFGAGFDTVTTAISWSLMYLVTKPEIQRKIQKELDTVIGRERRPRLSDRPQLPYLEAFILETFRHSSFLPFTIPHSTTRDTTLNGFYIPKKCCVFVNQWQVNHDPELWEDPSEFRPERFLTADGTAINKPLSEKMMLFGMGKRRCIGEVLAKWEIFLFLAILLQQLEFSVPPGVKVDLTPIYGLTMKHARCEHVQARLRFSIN

[2] = biological target: Cytochrome P450 3A4 (Homo sapiens) (UniProt P08684); conditions: Ricerca radioligand binding/CYP panel; CYP450 3A4; at 10 µM; active compounds read high
Chain of Cytochrome P450 3A4 (Homo sapiens) (P08684 whole entry, looked up): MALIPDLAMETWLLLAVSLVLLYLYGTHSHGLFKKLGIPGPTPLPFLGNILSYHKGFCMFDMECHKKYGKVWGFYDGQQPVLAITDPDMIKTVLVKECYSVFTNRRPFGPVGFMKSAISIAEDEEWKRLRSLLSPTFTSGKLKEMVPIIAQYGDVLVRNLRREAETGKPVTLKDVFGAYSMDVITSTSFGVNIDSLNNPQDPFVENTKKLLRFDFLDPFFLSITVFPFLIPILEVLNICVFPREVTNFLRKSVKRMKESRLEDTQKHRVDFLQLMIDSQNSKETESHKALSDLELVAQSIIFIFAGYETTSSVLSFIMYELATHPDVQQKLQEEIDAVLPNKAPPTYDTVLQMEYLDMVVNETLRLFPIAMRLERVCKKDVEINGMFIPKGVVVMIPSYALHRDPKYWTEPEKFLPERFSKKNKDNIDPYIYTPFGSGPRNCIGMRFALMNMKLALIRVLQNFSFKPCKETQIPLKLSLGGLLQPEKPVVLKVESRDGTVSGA

[3] = biological target: Beta-2 adrenergic receptor (Homo sapiens) (UniProt P07550); conditions: Ricerca radioligand binding/CYP panel; Adrenergic beta2; at 10 µM; active compounds read high
Chain of Beta-2 adrenergic receptor (Homo sapiens) (P07550 whole entry, looked up): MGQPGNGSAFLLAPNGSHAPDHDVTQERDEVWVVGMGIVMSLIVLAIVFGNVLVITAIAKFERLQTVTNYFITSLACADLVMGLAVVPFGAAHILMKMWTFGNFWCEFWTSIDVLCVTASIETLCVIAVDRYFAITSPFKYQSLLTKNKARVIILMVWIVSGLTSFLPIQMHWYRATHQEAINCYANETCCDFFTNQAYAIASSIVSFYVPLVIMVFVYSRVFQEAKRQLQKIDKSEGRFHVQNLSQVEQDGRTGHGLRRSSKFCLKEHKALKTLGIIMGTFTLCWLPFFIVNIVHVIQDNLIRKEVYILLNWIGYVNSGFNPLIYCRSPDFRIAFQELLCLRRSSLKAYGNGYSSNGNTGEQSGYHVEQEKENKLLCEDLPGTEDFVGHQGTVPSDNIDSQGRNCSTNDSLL

CYP450 2C19 = conditions: Ricerca radioligand binding/CYP panel, at 10 µM, active compounds read high
[4] = biological target: 5-hydroxytryptamine receptor 2B (Homo sapiens) (UniProt P41595); conditions: Ricerca radioligand binding/CYP panel; Serotonin (5-Hydroxytryptamine) 5-HT2B; at 10 µM; active compounds read high
Chain of 5-hydroxytryptamine receptor 2B (Homo sapiens) (P41595 whole entry, looked up): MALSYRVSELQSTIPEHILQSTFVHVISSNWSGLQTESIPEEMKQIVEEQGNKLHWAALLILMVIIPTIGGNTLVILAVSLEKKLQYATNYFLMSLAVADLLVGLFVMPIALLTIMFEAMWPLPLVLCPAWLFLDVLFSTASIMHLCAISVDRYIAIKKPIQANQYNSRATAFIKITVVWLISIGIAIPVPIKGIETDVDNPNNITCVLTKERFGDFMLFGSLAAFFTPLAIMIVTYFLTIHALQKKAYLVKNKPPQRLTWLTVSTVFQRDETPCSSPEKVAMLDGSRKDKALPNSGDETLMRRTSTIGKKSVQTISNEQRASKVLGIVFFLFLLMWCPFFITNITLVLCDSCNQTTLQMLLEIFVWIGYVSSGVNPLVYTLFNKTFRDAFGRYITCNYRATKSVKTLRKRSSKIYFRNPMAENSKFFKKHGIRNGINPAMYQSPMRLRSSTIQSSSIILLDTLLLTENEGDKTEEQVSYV

[5] = biological target: Muscarinic acetylcholine receptor M3 (Homo sapiens) (UniProt P20309); conditions: Ricerca radioligand binding/CYP panel, at 10 µM, active compounds read high
Chain of Muscarinic acetylcholine receptor M3 (Homo sapiens) (P20309 whole entry, looked up): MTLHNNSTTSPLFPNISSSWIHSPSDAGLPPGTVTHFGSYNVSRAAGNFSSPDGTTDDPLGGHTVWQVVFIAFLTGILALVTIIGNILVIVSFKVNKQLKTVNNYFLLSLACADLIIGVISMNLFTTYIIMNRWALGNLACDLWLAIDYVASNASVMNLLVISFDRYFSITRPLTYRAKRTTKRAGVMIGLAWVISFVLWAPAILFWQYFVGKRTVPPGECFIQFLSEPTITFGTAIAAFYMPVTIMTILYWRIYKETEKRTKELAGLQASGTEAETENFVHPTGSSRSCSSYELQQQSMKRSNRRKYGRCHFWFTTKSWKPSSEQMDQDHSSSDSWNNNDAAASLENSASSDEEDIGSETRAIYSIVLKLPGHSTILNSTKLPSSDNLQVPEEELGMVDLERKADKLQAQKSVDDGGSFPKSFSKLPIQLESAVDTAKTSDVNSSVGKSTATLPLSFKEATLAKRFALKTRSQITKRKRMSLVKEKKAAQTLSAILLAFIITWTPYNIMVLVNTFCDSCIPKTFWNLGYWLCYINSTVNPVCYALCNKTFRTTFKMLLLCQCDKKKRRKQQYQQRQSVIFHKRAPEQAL

[6] = system: Transporter Norepinephrine (NET); conditions: Ricerca radioligand binding/CYP panel, at 10 µM, active compounds read high
Glutamate NMDA = conditions: Ricerca radioligand binding/CYP panel, Phencyclidine site, at 10 µM, active compounds read high
[7] = biological target: Cytochrome P450 2C9 (Homo sapiens) (UniProt P11712); conditions: Ricerca radioligand binding/CYP panel; CYP450 2C9; at 10 µM; active compounds read high
Chain of Cytochrome P450 2C9 (Homo sapiens) (P11712 whole entry, looked up): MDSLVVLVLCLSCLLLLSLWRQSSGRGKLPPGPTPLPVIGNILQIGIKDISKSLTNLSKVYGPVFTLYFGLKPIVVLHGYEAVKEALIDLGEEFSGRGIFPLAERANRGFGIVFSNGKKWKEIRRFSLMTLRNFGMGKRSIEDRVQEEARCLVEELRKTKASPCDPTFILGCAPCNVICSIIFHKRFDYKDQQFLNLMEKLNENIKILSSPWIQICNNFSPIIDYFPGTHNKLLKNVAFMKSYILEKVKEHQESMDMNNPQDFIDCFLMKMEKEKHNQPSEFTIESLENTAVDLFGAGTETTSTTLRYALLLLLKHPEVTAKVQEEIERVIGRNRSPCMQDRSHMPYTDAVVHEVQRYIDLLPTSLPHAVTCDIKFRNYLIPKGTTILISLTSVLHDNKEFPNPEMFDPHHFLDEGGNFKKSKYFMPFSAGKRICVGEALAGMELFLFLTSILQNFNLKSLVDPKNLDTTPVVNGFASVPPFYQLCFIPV

GABAA = conditions: Ricerca radioligand binding/CYP panel, central, at 10 µM, active compounds read high
Adenosine A1 = conditions: Ricerca radioligand binding/CYP panel, at 10 µM, active compounds read high
Sodium Channel = conditions: Ricerca radioligand binding/CYP panel, Site 2, at 10 µM, active compounds read high
[8] = biological target: Voltage-gated inwardly rectifying potassium channel KCNH2 (Homo sapiens) (UniProt Q12809); conditions: Ricerca radioligand binding/CYP panel; Potassium Channel hERG; at 10 µM; active compounds read high
Adrenergic beta1 = conditions: Ricerca radioligand binding/CYP panel, at 10 µM, active compounds read high
Prostanoid EP4 = conditions: Ricerca radioligand binding/CYP panel, at 10 µM, active compounds read high
Dopamine D2S = conditions: Ricerca radioligand binding/CYP panel, at 10 µM, active compounds read high
Adrenergic alpha1B = conditions: Ricerca radioligand binding/CYP panel, at 10 µM, active compounds read high
Histamine H1 = conditions: Ricerca radioligand binding/CYP panel, at 10 µM, active compounds read high
Adrenergic alpha1A = conditions: Ricerca radioligand binding/CYP panel, at 10 µM, active compounds read high
[9] = biological target: Cytochrome P450 2D6 (Homo sapiens) (UniProt P10635); conditions: Ricerca radioligand binding/CYP panel; CYP450 2D6; at 10 µM; active compounds read high
Chain of Cytochrome P450 2D6 (Homo sapiens) (P10635 whole entry, looked up): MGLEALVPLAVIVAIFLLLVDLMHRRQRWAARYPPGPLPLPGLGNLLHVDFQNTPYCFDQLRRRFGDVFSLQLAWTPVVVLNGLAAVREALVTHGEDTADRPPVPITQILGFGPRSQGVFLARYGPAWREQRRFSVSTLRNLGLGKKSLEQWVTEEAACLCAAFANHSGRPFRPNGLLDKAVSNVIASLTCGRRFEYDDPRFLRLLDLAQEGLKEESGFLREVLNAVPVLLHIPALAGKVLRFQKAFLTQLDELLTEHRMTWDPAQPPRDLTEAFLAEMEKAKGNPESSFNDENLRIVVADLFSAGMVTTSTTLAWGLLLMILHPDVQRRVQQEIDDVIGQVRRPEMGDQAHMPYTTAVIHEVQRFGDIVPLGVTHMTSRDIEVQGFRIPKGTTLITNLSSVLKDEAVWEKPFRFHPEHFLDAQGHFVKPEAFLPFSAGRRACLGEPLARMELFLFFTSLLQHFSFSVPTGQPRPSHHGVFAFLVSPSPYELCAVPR

Sigma 1 = conditions: Ricerca radioligand binding/CYP panel, at 10 µM, active compounds read high
Nicotinic Acetylcholine = conditions: Ricerca radioligand binding/CYP panel, at 10 µM, active compounds read high
Calcium Channel L-Type = conditions: Ricerca radioligand binding/CYP panel, Dihydropyridine site, at 10 µM, active compounds read high
[10] = system: Alpha-2A adrenergic receptor (Homo sapiens) + Histamine H1 receptor (Homo sapiens) + Mu-type opioid receptor (Homo sapiens); conditions: Ricerca radioligand binding/CYP panel; at 10 µM; active compounds read high
[11] = biological target: D(1A) dopamine receptor (Homo sapiens) (UniProt P21728); conditions: Ricerca radioligand binding/CYP panel; Dopamine D1; at 10 µM; active compounds read high
Chain of D(1A) dopamine receptor (Homo sapiens) (P21728 whole entry, looked up): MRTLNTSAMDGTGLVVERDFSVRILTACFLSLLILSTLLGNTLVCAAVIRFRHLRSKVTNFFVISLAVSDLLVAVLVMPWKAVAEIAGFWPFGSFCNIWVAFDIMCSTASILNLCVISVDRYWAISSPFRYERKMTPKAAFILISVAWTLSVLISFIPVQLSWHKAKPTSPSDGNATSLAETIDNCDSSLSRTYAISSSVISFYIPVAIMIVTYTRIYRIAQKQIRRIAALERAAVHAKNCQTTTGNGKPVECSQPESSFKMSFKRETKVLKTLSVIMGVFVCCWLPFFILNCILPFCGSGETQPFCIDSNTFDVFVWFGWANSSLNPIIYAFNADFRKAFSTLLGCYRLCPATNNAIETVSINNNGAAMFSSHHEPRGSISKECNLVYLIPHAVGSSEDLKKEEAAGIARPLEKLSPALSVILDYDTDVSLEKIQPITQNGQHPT

[12] = biological target: Alpha-2A adrenergic receptor (Homo sapiens) (UniProt P08913); conditions: Ricerca radioligand binding/CYP panel; Adrenergic alpha2A; at 10 µM; active compounds read high
Chain of Alpha-2A adrenergic receptor (Homo sapiens) (P08913 whole entry, looked up): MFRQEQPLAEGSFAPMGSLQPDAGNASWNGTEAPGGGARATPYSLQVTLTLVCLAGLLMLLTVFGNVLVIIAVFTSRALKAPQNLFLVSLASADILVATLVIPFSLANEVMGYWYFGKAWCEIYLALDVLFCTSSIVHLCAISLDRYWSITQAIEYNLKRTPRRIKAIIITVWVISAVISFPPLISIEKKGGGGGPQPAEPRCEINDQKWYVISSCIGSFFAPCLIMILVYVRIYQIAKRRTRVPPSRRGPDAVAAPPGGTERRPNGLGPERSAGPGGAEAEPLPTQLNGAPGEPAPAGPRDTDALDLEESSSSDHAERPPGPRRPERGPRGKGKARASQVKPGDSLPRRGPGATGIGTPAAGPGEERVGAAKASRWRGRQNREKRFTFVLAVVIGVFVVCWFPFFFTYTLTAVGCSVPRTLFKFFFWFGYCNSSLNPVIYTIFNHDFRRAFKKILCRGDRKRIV

[13] = biological target: Muscarinic acetylcholine receptor M2 (Homo sapiens) (UniProt P08172); conditions: Ricerca radioligand binding/CYP panel, at 10 µM, active compounds read high
Chain of Muscarinic acetylcholine receptor M2 (Homo sapiens) (P08172 whole entry, looked up): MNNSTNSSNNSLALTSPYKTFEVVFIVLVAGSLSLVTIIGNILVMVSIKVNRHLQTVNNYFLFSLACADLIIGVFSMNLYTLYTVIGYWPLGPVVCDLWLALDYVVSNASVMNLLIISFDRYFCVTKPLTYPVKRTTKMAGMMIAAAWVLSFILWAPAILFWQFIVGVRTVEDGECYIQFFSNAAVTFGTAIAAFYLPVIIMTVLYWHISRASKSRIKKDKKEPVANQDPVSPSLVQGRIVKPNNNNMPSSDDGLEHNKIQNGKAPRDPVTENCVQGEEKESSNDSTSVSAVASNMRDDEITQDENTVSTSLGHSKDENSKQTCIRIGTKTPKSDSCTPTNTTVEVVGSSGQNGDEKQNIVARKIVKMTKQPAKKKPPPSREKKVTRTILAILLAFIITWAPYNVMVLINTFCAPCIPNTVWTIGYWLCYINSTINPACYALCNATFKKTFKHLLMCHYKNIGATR

Adenosine A2A = conditions: Ricerca radioligand binding/CYP panel, at 10 µM, active compounds read high
Cannabinoid CB1 = conditions: Ricerca radioligand binding/CYP panel, at 10 µM, active compounds read high
Opiate mu (OP3, MOP) = conditions: Ricerca radioligand binding/CYP panel, at 10 µM, active compounds read high

SMILES: COc1ccc(Oc2c(Cl)cnn(C3c4ccccc4-c4ccccc43)c2=O)cc1
- inhibition [1]: 67%
- inhibition [2]: 26% (inactive)
- inhibition [3]: 4% (inactive)
- inhibition (CYP450 2C19): 51%
- inhibition [4]: 63%
- inhibition [5]: -1% (inactive)
- inhibition [6]: 42% (inactive)
- inhibition (Glutamate NMDA): -18% (inactive)
- inhibition [7]: 13% (inactive)
- inhibition (GABAA; Flunitrazepam site): 0% (inactive)
- inhibition (GABAA; Muscimol site): 7% (inactive)
- inhibition (Adenosine A1): 7% (inactive)
- inhibition (Sodium Channel): 36% (inactive)
- inhibition [8]: 28% (inactive)
- inhibition (Adrenergic beta1): 7% (inactive)
- inhibition (Prostanoid EP4): 5% (inactive)
- inhibition (Dopamine D2S): -1% (inactive)
- inhibition (Adrenergic alpha1B): 8% (inactive)
- inhibition (Histamine H1): 17% (inactive)
- inhibition (Adrenergic alpha1A): -1% (inactive)
- inhibition [9]: 2% (inactive)
- inhibition (Sigma 1): 6% (inactive)
- inhibition (Nicotinic Acetylcholine): -16% (inactive)
- inhibition (Calcium Channel L-Type): 33% (inactive)
- inhibition [10]: 8% (inactive)
- inhibition [11]: 14% (inactive)
- inhibition [12]: 5% (inactive)
- inhibition [13]: -2% (inactive)
- inhibition (Adenosine A2A): 15% (inactive)
- inhibition (Cannabinoid CB1): 9% (inactive)
- inhibition (Opiate mu (OP3, MOP)): 1% (inactive)
